Tests used:
[1] = target: COX-1 (Homo sapiens, UniProt P23219); assay: Human COX-1 enzyme activity (COX Inhibitor Screening Assay, prostaglandin EIA); assay type: biochemical; design: purchased Cayman Chemical; conditions: test compound at 100 μM
Protocol: (§1) The human COX-1 and COX-2 enzyme activities and the measurement of the prostaglandin products synthesized were performed using the COX Inhibitor Screening Assay (Cayman Chemical, Ann Arbor, Mich.), which also contained the Prostaglandin Screening EIA Kit, used for prostaglandin quantification). The test compounds were dissolved at 50 times the highest final reaction concentration in DMSO or any other suitable solvent as stock solutions. These stock solutions were then diluted in the same solvent. Eight glass test tubes (13×100 mm) were placed in a 25° C. water bath. To each test tube was added 950 μL of reaction buffer (0.1 M Tris-HCl, pH 8.0, containing 5 mM EDTA, and 2 mM phenol), 10 μL of 100 µM heme solution, and 10 μL (5 units) of either human COX-1 or COX-2 enzyme and the resulting mixture was incubated for 2 minutes. Twenty μL of the solvent was added to one tube (100% initial activity or solvent control) and 20 μL of each dilution of the test compound was added to one tube each. Each tube was vortexed immediately after the addition. The enzyme was incubated with the inhibitor for 20 minutes at 25° C. The enzymatic reaction was then initiated by the addition of 10 μL of freshly prepared 10 mM arachidonic acid (neutralized with KOH), vortexed and then incubated for 2 minutes (or, in some cases as indicated, 30 seconds) at 37° C. The reaction was terminated by the addition of 50 μL of 1 M HCl, vortexed and placed at room temperature. One hundred μL of a saturated stannous chloride solution (50 mg/mL of 0.1 M HCl) was added and the reaction mixture was allowed to stand at room temperature for at least 5 minutes.
(§2) The prostaglandins (PG) produced in the reactions were assayed, after a 2,000-fold dilution, using the Prostaglandin Screening EIA Kit (Cayman Chemical, Ann Arbor, Mich.). The assay contains an antibody with broad specificity for all the prostaglandin families (PGF, PGE, PGD, and thromboxane B-type) synthesized in the COX-1/COX-2 reactions. The synthesized prostaglandin competes with a PG-tagged acetylcholine esterase tracer for binding to the PG antibody. Binding of synthesized PG lowers the colorimetric development of the Ellman's Reagent (computed as %B/B0). The actual amount of synthesized PG was interpolated from a standard curve using known amounts of supplied prostaglandin E2 (PGE2) (PGE2 concentration vs. %B/B0). The data generated were the mean±standard deviation of triplicate wells in the EIA for a single reaction at a given inhibitor concentration. A plot of % of control (i.e., the solvent control without inhibitor) vs. test compound inhibitor concentration for both isoenzymes was used to determine the IC50 's for COX-1 and COX-2 for that test compound, when IC50's were calculated. The % inhibition for COX-1 and COX-2 enzyme activity by the test compounds at the indicated concentrations are given in Table 1.

[2] = target: T1, COX-2 (Homo sapiens, UniProt P35354); assay: Human COX-2 enzyme activity (COX Inhibitor Screening Assay, prostaglandin EIA); assay type: biochemical; design: purchased Cayman Chemical; conditions: test compound at 10 μM
T1 sequence (P35354 18-604): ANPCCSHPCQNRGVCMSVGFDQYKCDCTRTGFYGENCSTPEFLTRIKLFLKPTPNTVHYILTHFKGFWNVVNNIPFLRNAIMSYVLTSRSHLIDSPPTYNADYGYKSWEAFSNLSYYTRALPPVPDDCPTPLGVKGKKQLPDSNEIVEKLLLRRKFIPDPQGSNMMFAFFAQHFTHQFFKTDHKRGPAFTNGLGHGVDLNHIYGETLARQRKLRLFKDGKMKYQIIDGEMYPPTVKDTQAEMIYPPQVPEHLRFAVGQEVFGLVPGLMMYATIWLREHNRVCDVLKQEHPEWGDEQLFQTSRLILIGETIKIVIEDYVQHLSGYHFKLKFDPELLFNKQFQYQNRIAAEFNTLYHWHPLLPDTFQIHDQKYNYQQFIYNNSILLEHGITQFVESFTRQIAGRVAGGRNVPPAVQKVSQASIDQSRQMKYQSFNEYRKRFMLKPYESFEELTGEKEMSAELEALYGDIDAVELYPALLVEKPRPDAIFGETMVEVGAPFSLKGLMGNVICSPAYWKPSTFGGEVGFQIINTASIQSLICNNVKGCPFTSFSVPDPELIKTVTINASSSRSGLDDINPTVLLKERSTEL
Protocol: as §1
as §2, with “concentration.” for “concentration. A plot of % of control (i.e., the solvent control without inhibitor) vs. test compound inhibitor concentration for both isoenzymes was used to determine the IC50 's for COX-1 and COX-2 for that test compound, when IC50's were calculated. The % inhibition for COX-1 and COX-2 enzyme activity by the test compounds at the indicated concentrations are given in Table 1.”

Sequence of COX-1 (P23219 24-599): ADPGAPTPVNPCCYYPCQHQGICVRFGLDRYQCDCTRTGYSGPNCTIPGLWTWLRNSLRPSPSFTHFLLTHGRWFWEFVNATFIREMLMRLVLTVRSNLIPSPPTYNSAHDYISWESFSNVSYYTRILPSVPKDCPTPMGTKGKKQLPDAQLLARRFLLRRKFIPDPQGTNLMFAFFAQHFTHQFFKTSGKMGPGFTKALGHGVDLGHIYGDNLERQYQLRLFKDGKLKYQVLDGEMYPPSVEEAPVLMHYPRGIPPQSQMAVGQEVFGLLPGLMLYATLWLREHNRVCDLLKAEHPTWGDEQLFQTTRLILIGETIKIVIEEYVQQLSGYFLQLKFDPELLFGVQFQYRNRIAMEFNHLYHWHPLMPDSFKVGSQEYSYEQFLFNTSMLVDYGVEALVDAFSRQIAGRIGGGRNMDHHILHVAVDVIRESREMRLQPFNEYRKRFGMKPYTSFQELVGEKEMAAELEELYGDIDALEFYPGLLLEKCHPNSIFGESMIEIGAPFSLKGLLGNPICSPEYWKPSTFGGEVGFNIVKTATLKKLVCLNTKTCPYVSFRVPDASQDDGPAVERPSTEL

Row | Structure (SMILES) | COX-1 Inhibition (% at 100 μM) [1] [%] | COX-2 Inhibition (% at 10 μM) [2] [%]
1 | CS(=O)(=O)c1ccc(-c2cc3c(cc2CC2CCCCC2)OCO3)cc1 [Example 1e, 1-(6-(Cyclohexylmethyl)(2-H-benzo(3,4-d)1,3-dioxolen-5-yl))-4-(methylsulfonyl) benzene] | 0 | 100
2 | CS(=O)(=O)c1ccc(-c2cc3c(cc2C(=O)c2ccccc2)OCO3)cc1 [Example 3d, 6-(4-(Methylsulfonyl)phenyl)(2H-benzo(d)1,3-dioxolan-5-yl) phenyl ketone] | 0 | 90
3 | CS(=O)(=O)c1ccc(-c2cc3c(cc2Cc2cccnc2)OCO3)cc1 [Example 6c, 4-(Methylsulfonyl)-1-(6-(3-pyridylmethyl)(2H-benzo(3,4-d)1,3-dioxolan-5-yl))benzene] | 30 | 65
4 | CS(=O)(=O)c1ccc(-c2cc3c(cc2CN2CCCCC2=O)OCO3)cc1 [Example 9c] | 70 | 90
5 | CS(=O)(=O)c1ccc(-c2cc3c(cc2C=C2CCCC2)OCO3)cc1 [Example 10a, 4-(6-(Cyclopentylidenemethyl)(2H-benzo(3,4-d)1,3-dioxolan-5-yl))-1-(methylsulfonyl)benzene] | 30 | 100
6 | CS(=O)(=O)c1ccc(-c2cc3c(cc2Cc2cc(F)cc(F)c2)OCO3)cc1 [Example 15c, 5-(1-(3′,5′-Difluorophenyl)methyl)-1,2-methylenedioxy-4-(4-methylsulfonylphenyl)benzene] | 15 | 90
